Usually IC50 stands for the midpoint of a concentration-inhibition curve.

One experiment has as its target T1, hP2X3 (human Purinergic P2X receptors subtype 3), clone B (Homo sapiens, UniProt P56373).
T1 sequence (P56373 1-397): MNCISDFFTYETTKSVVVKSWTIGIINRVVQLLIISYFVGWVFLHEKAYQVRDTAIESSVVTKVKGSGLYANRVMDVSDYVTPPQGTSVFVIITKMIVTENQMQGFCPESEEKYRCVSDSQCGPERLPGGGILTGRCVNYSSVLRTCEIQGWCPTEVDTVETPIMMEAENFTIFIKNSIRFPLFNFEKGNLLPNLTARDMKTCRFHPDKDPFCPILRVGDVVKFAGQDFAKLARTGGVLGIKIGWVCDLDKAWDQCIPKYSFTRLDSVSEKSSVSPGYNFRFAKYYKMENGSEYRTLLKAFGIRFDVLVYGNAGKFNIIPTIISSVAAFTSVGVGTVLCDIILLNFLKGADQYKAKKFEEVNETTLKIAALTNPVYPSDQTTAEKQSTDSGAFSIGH
The experiment is described as follows: hP2X3 FLIPR calcium (Fluo-4) antagonist assay, clone B. The conditions noted are these: Human P2X3 FLIPR Clone B IC50 (nM), RLE cells expressing hP2X3 clone B (NM_002559); agonist 500 nM α,β-methylene-ATP.
As for `COc1ccccc1CC1CCCN1c1nc(N2CCN(C(C)=O)CC2)nc2c1CN(C(C)C)C2=O` (centres unmarked) [Example 290, 2-(4-acetylpiperazin-1-yl)-6-isopropyl-4-[2-[(2-methoxyphenyl)methyl]pyrrolidin-1-yl]-5H-pyrrolo[3,4-d]pyrimidin-7-one], the IC50 was 2000 nM.

For `COc1cccc(CC2CCCN2c2nc(N3CCN(C(C)=O)CC3)nc3c2CN(C(C)C)C3=O)c1` (centres unmarked) [Example 291, 2-(4-acetylpiperazin-1-yl)-6-isopropyl-4-[2-[(3-methoxyphenyl)methyl]pyrrolidin-1-yl]-5H-pyrrolo[3,4-d]pyrimidin-7-one], the IC50 was determined as 490 nM.

As for `CC(=O)N1CCN(c2nc3c(c(N4CCC[C@@H]4C(=O)OCc4ccc(Cl)cc4)n2)CN(C(C)C)C3=O)CC1` [Example 301, (4-chlorophenyl)methyl (2R)-1-[4-(4-acetylpiperazin-1-yl)-7-oxo-8-propan-2-yl-3,5,8-triazabicyclo[4.3.0]nona-1,3,5-trien-2-yl]pyrrolidine-2-carboxylate], the IC50 came out at 2500 nM.

Take `CC(=O)N1CCN(c2nc3c(c(N4CCC[C@@H]4C(=O)NC4CCCCC4)n2)CN(C(C)C)C3=O)CC1` [Example 302, (2R)-1-[4-(4-acetylpiperazin-1-yl)-7-oxo-8-propan-2-yl-3,5,8-triazabicyclo[4.3.0]nona-1,3,5-trien-2-yl]-N-cyclohexyl-pyrrolidine-2-carboxamide]: the 50% inhibitory concentration (IC50) was determined as 3100 nM.

In the case of `CC(=O)N1CCN(c2nc3c(c(N4CCC[C@@H]4C(=O)N4CCC(C)CC4)n2)CN(C(C)C)C3=O)CC1` [Example 303, 4-(4-acetylpiperazin-1-yl)-2-[(2R)-2-(4-methylpiperidine-1-carbonyl)pyrrolidin-1-yl]-8-propan-2-yl-3,5,8-triazabicyclo[4.3.0]nona-2,4,10-trien-7-one], the half-maximal inhibitory concentration (IC50) stood at 2300 nM.

Consider `CC(=O)N1CCN(c2nc(NC(C)(C)Cc3ccc(F)cc3)c3c(n2)C(=O)N(C2CCOCC2)C3)CC1` [Example 305, 3-(4-acetylpiperazin-1-yl)-5-[[1-(4-fluorophenyl)-2-methyl-propan-2-yl]amino]-8-(oxan-4-yl)-2,4,8-triazabicyclo[4.3.0]nona-1,3,5-trien-9-one], for which the IC50 was found to be 2400 nM.

Consider `CCC(C)N1Cc2c(NC(C)(C)Cc3ccc(F)cc3)nc(N3CCN(C(C)=O)CC3)nc2C1=O` (centres unmarked) [Example 312, 2-(4-acetylpiperazin-1-yl)-6-sec-butyl-4-(1-(4-fluorophenyl)-2-methylpropan-2-ylamino)-5H-pyrrolo[3,4-d]pyrimidin-7(6H)-one], for which the IC50 stood at 160 nM.

Regarding `CC(=O)N1CCN(c2nc(NC(C)(C)Cc3ccc(F)cc3)c3c(n2)C(=O)N(C(C)C(C)C)C3)CC1` (centres unmarked) [Example 313, 2-(4-acetylpiperazin-1-yl)-4-(1-(4-fluorophenyl)-2-methylpropan-2-ylamino)-6-(3-methylbutan-2-yl)-5H-pyrrolo[3,4-d]pyrimidin-7(6H)-one], the IC50 came out at 280 nM.

Consider `COCC(C)N1Cc2c(NC(C)(C)Cc3ccc(F)cc3)nc(N3CCN(C(C)=O)CC3)nc2C1=O` (centres unmarked) [Example 314, 2-(4-acetylpiperazin-1-yl)-4-(1-(4-fluorophenyl)-2-methylpropan-2-ylamino)-6-(1-methoxypropan-2-yl)-5H-pyrrolo[3,4-d]pyrimidin-7(6H)-one], for which the half-maximal inhibitory concentration (IC50) is 670 nM.

Turning to `CC(=O)N1CCN(c2nc(NC(C)(C)Cc3ccc(F)cc3)c3c(n2)C(=O)N(Cc2ccccc2Cl)C3)CC1` [Example 315, 2-(4-acetylpiperazin-1-yl)-6-(2-chlorobenzyl)-4-(1-(4-fluorophenyl)-2-methylpropan-2-ylamino)-5H-pyrrolo[3,4-d]pyrimidin-7(6H)-one], the IC50 stood at 3000 nM.

As for `CC(=O)N(Cc1cc2ccccc2cn1)c1nc(N2CCN(C(C)=O)[C@@H](C)C2)nc2c1CN(C(C)C)C2=O` [Example 325, (S)—N-(2-(4-acetyl-3-methylpiperazin-1-yl)-6-isopropyl-7-oxo-6,7-dihydro-5H-pyrrolo[3,4-d]pyrimidin-4-yl)-N-(isoquinolin-3-ylmethyl)acetamide], the IC50 was 380 nM.

On to `CC(=O)N(Cc1cc2ccccc2cn1)c1nc(N2CCN(C(C)=O)[C@H](C)C2)nc2c1CN(C(C)C)C2=O` [Example 326, (R)—N-(2-(4-acetyl-3-methylpiperazin-1-yl)-6-isopropyl-7-oxo-6,7-dihydro-5H-pyrrolo[3,4-d]pyrimidin-4-yl)-N-(isoquinolin-3-ylmethyl)acetamide], for which the IC50 is 590 nM.

With `CC(=O)N1CCN(c2nc(NCc3cnc4ccccc4c3)c3c(n2)C(=O)N(C(C)C)C3)C[C@@H]1C` [Example 327, (S)-2-(4-acetyl-3-methylpiperazin-1-yl)-6-isopropyl-4-(quinolin-3-ylmethylamino)-5H-pyrrolo[3,4-d]pyrimidin-7(6H)-one], the IC50 came out at 91 nM.

As to `CC(=O)N1CCN(c2nc(NCc3cnc4ccccc4c3)c3c(n2)C(=O)N(C(C)C)C3)C[C@H]1C` [Example 328, (R)-2-(4-acetyl-3-methylpiperazin-1-yl)-6-isopropyl-4-(quinolin-3-ylmethylamino)-5H-pyrrolo[3,4-d]pyrimidin-7(6H)-one], the IC50 is 62 nM.

Consider `CC(C)N1Cc2c(NCc3cnc4ccccc4c3)nc(N3CCN(S(C)(=O)=O)CC3)nc2C1=O` [Example 329, 6-(1-methylethyl)-2-[4-(methylsulfonyl)piperazin-1-yl]-4-[(quinolin-3-ylmethyl)amino]-5,6-dihydro-7H-pyrrolo[3,4-d]pyrimidin-7-one], for which the half-inhibitory concentration (IC50) came out at 8900 nM.

Turning to `CC(=O)N1CCN(c2nc(NC(C)(C)Cc3cccc(C)c3)c3c(n2)C(=O)N(C(C)C)C3)CC1` [Example 333, 2-(4-acetylpiperazin-1-yl)-6-isopropyl-4-(2-methyl-1-m-tolylpropan-2-ylamino)-5H-pyrrolo[3,4-d]pyrimidin-7(6H)-one], the 50% inhibitory concentration (IC50) is 830 nM.

Regarding `CC(=O)N1CCN(c2nc3c(c(N(C)Cc4cnc5ccccc5c4)n2)CN(C(C)C)C3=O)CC1` [Example 346, 2-(4-acetylpiperazin-1-yl)-6-isopropyl-4-(methyl(quinolin-3-ylmethyl)amino)-5H-pyrrolo[3,4-d]pyrimidin-7(6H)-one], the concentration for half-maximal inhibition (IC50) is 47 nM.

As to `CC(=O)N1CCN(c2nc3c(c(N(C)Cc4cc5ccccc5nc4C)n2)CN(C(C)C)C3=O)CC1` [Example 347, 2-(4-acetylpiperazin-1-yl)-6-isopropyl-4-(methyl((2-methylquinolin-3-yl)methyl)amino)-5H-pyrrolo[3,4-d]pyrimidin-7(6H)-one], the IC50 was 2900 nM.

On to `CC(=O)N1CCN(c2nc(NCc3cnc4ccccc4c3)c3c(n2)C(=O)N(C(C)C)C3)C(C)C1` (centres unmarked) [Example 352, 2-(4-Acetyl-2-methylpiperazin-1-yl)-6-isopropyl-4-(quinolin-3-ylmethylamino)-5H-pyrrolo[3,4-d]pyrimidin-7(6M)-one], for which the IC50 worked out at 200 nM.

The target of another experiment is T2, hP2X3 (human Purinergic P2X receptors subtype 3), clone A (Homo sapiens, UniProt P56373).
T2 sequence (P56373 1-397): T1 sequence (P56373 1-397)
The experiment is described as follows: hP2X3 FLIPR calcium (Fluo-4) antagonist assay, clone A. The settings on record: Human P2X3 FLIPR Clone A Mean IC50 (nM), RLE cells expressing hP2X3 clone A (AB016608); agonist 500 nM α,β-methylene-ATP.
Take `CC(=O)N1CCN(c2nc(N[C@H](C)c3ccc(C4CC4)cc3)c3c(n2)C(=O)N(C(C)C)C3)CC1` [Example 192, (R)-2-(4-acetylpiperazin-1-yl)-4-(1-(4-cyclopropylphenyl)ethylamino)-6-isopropyl-5H-pyrrolo[3,4-d]pyrimidin-7(6H)-one]: the IC50 turned out to be 102 nM.

Take `CCCOc1ccc([C@@H](C)Nc2nc(N3CCN(C(C)=O)CC3)nc3c2CN(C(C)C)C3=O)cc1F` [Example 193, (R)-2-(4-acetylpiperazin-1-yl)-4-(1-(3-fluoro-4-propoxyphenyl)ethylamino)-6-isopropyl-5H-pyrrolo[3,4-d]pyrimidin-7(6H)-one]: the concentration for half-maximal inhibition (IC50) was 235 nM.

As for `CCOc1ncc([C@@H](C)Nc2nc(N3CCN(C(C)=O)CC3)nc3c2CN(C(C)C)C3=O)cc1Cl` [Example 194, (R)-2-(4-acetylpiperazin-1-yl)-4-(1-(5-chloro-6-ethoxypyridin-3-yl)ethylamino)-6-isopropyl-5H-pyrrolo[3,4-d]pyrimidin-7(6H)-one], the IC50 is 283 nM.

On to `CC(=O)N1CCN(c2nc(NC(C)c3nc4ccccc4s3)c3c(n2)C(=O)N(C(C)C)C3)CC1` (centres unmarked) [Example 236, 2-(4-acetylpiperazin-1-yl)-4-(1-(benzo[d]thiazol-2-yl)ethylamino)-6-isopropyl-5H-pyrrolo[3,4-d]pyrimidin-7(6H)-one], for which the IC50 turned out to be 564 nM.

Regarding `CC(=O)N1CCN(c2nc3c(c(N4CCCC4c4ccc(C)c(C)c4)n2)CN(C(C)C)C3=O)CC1` (centres unmarked) [Example 298, 2-(4-acetylpiperazin-1-yl)-4-[2-(3,4-dimethylphenyl)pyrrolidin-1-yl]-6-(1-methylethyl)-5,6-dihydro-7H-pyrrolo[3,4-d]pyrimidin-7-one], the concentration for half-maximal inhibition (IC50) worked out at 454 nM.

Take `COc1ccc(C2CCCN2c2nc(N3CCN(C(C)=O)CC3)nc3c2CN(C(C)C)C3=O)cc1` (centres unmarked) [Example 299, 2-(4-acetylpiperazin-1-yl)-4-[2-(4-methoxyphenyl)pyrrolidin-1-yl]-6-(1-methylethyl)-5,6-dihydro-7H-pyrrolo[3,4-d]pyrimidin-7-one]: the half-maximal inhibitory concentration (IC50) stood at 1140 nM.

Consider `CCOc1ccc([C@H]2CCCN2c2nc(N3CCN(C(C)=O)CC3)nc3c2CN(C(C)C)C3=O)cc1F` [Example 300, 2-(4-acetylpiperazin-1-yl)-4-[(2R)-2-(4-ethoxy-3-fluorophenyl)pyrrolidin-1-yl]-6-(1-methylethyl)-5,6-dihydro-7H-pyrrolo[3,4-d]pyrimidin-7-one], for which the IC50 worked out at 192 nM.

The values above are taken from patent publication US20090099195A1 (ASTRAZENECA AB, priority 2007, published 2009).
